Reference: ChEMBL document CHEMBL4715708, “Discovery of 8-Amino-imidazo[1,5-a]pyrazines as Reversible BTK Inhibitors for the Treatment of Rheumatoid Arthritis” (ACS Med Chem Lett, 2016)

What was measured:
[1] = Tmax in rat at 10 mg/kg, po; type: ADME, organism-based; details: in vivo
[2] = Cmax in rat at 10 mg/kg, po; type: ADME, organism-based; set-up: route oral, dose 10 mg/kg; details: in vivo
[3] = Oral bioavailability in rat at 10 mg/kg; type: ADME, organism-based; details: in vivo
[4] = Dose normalized AUC in rat at 4 mg/kg, iv; type: ADME, organism-based; details: in vivo
[5] = Half life in rat at 4 mg/kg, iv; type: ADME, organism-based; details: in vivo
[6] = Clearance in rat at 4 mg/kg, iv; type: ADME, organism-based; details: in vivo
[7] = Volume of distribution at steady state in rat at 4 mg/kg, iv; type: ADME, organism-based; details: in vivo, read-out: Vdss
[8] = Dose normalized AUC in rat at 2 mg/kg, iv; type: ADME, organism-based; details: in vivo
[9] = Cmax in rat at 5 mg/kg, po; type: ADME, organism-based; set-up: route oral, dose 5 mg/kg; details: in vivo
[10] = Dose normalized AUC in dog at 1 mg/kg, iv; type: ADME, organism-based, Canis lupus familiaris; details: in vivo
[11] = Clearance in rat at 2 mg/kg, iv; type: ADME, organism-based; details: in vivo
[12] = Clearance in dog at 1 mg/kg, iv; type: ADME, organism-based, Canis lupus familiaris; details: in vivo
[13] = Volume of distribution at steady state in dog at 1 mg/kg, iv; type: ADME, organism-based, Canis lupus familiaris; details: in vivo, read-out: Vdss
[14] = Half life in dog at 1 mg/kg, iv; type: ADME, organism-based, Canis lupus familiaris; details: in vivo
[15] = Cmax in dog at 2 mg/kg, po; type: ADME, organism-based, Canis lupus familiaris; set-up: route oral, dose 2 mg/kg; details: in vivo
[16] = Tmax in dog at 2 mg/kg, po; type: ADME, organism-based, Canis lupus familiaris; details: in vivo
[17] = Volume of distribution at steady state in rat at 2 mg/kg, iv; type: ADME, organism-based; details: in vivo, read-out: Vdss
[18] = Tmax in rat at 5 mg/kg, po; type: ADME, organism-based; details: in vivo
[19] = Oral bioavailability in dog at 2 mg/kg; type: ADME, organism-based, Canis lupus familiaris; details: in vivo
[20] = Half life in rat at 2 mg/kg, iv; type: ADME, organism-based; details: in vivo
[21] = Oral bioavailability in rat at 5 mg/kg; type: ADME, organism-based; details: in vivo
[22] = biological target: T1, Tyrosine-protein kinase Tec (Homo sapiens, UniProt P42680); assay: Inhibition of human TEC
T1 sequence (P42680 whole entry): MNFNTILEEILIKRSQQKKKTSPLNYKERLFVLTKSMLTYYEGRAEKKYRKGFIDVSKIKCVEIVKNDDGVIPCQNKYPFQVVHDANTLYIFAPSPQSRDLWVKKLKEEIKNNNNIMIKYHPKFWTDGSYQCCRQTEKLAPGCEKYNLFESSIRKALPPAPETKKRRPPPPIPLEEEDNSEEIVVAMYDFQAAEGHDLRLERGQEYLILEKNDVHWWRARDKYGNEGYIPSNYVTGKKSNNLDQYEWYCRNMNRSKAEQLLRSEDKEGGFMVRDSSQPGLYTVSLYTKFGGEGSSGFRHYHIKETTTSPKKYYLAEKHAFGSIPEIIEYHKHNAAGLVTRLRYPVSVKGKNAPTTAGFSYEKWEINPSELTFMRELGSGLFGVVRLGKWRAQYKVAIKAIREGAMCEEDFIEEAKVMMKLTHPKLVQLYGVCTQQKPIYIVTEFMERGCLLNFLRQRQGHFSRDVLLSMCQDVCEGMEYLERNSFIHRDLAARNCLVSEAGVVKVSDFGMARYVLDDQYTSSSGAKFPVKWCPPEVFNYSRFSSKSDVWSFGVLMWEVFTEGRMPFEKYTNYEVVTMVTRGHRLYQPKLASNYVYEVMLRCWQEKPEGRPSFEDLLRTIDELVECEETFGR

[23] = biological target: Tyrosine-protein kinase Lck (Homo sapiens, UniProt P06239); assay: Inhibition of human LCK
[24] = biological target: Tyrosine-protein kinase Srms (Homo sapiens, UniProt Q9H3Y6); assay: Inhibition of human SRMS
[25] = biological target: Tyrosine-protein kinase Fgr (Homo sapiens, UniProt P09769); assay: Inhibition of human FGR
[26] = biological target: Proto-oncogene tyrosine-protein kinase Src (Homo sapiens, UniProt P12931); assay: Inhibition of human SRC
[27] = biological target: T2, Cytoplasmic tyrosine-protein kinase BMX (Homo sapiens, UniProt P51813); assay: Inhibition of human BMX
T2 sequence (P51813 whole entry): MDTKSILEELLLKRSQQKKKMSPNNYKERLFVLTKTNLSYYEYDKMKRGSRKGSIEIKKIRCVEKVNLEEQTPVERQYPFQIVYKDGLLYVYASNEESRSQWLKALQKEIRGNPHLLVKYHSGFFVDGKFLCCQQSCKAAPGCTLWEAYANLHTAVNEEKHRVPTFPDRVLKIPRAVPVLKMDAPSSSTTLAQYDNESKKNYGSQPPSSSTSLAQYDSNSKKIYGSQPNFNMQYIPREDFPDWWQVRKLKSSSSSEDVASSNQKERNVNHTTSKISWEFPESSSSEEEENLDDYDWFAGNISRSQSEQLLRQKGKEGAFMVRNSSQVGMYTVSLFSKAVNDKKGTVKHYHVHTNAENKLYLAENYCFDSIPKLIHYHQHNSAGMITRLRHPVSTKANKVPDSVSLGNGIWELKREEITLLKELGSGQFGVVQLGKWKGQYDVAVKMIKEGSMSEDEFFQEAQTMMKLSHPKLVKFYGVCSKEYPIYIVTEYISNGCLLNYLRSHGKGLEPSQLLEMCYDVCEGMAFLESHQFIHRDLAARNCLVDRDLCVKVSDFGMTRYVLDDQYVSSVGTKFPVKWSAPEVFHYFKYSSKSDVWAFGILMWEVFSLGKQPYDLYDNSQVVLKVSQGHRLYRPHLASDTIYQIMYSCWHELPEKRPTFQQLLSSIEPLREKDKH

[28] = biological target: Protein-tyrosine kinase 6 (Homo sapiens, UniProt Q13882); assay: Inhibition of human PTK6
[29] = biological target: Tyrosine-protein kinase Lyn (Homo sapiens, UniProt P07948); assay: Inhibition of human LYNB
[30] = biological target: Tyrosine-protein kinase FRK (Homo sapiens, UniProt P42685); assay: Inhibition of human FRK
[31] = biological target: Tyrosine-protein kinase CSK (Homo sapiens, UniProt P41240); assay: Inhibition of human CSK
[32] = biological target: Tyrosine-protein kinase Yes (Homo sapiens, UniProt P07947); assay: Inhibition of human YES1
[33] = biological target: Tyrosine-protein kinase Fyn (Homo sapiens, UniProt P06241); assay: Inhibition of human FYN
[34] = biological target: T3, Tyrosine-protein kinase ITK/TSK (Homo sapiens, UniProt Q08881); assay: Inhibition of human ITK
T3 sequence (Q08881 whole entry): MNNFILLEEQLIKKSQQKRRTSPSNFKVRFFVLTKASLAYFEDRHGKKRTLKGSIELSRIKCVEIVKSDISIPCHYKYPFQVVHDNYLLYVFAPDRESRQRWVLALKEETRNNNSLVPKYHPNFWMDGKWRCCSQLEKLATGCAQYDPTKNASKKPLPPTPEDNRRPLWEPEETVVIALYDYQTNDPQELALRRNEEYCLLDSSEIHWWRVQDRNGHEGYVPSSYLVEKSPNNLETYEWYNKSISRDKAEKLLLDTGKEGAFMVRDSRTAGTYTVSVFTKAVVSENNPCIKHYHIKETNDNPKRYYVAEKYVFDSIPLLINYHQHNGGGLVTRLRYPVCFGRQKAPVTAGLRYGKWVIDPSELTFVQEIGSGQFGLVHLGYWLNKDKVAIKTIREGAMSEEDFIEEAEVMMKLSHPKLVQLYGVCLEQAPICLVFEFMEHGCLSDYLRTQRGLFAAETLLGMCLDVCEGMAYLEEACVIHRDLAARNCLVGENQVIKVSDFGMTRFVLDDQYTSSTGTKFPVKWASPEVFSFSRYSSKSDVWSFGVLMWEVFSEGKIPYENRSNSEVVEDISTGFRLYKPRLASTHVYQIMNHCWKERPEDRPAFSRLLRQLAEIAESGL

[35] = biological target: Receptor tyrosine-protein kinase erbB-4 (Homo sapiens, UniProt Q15303); assay: Inhibition of human ERBB4
[36] = biological target: T4, Tyrosine-protein kinase TXK (Homo sapiens, UniProt P42681); assay: Inhibition of human TXK
T4 sequence (P42681 whole entry): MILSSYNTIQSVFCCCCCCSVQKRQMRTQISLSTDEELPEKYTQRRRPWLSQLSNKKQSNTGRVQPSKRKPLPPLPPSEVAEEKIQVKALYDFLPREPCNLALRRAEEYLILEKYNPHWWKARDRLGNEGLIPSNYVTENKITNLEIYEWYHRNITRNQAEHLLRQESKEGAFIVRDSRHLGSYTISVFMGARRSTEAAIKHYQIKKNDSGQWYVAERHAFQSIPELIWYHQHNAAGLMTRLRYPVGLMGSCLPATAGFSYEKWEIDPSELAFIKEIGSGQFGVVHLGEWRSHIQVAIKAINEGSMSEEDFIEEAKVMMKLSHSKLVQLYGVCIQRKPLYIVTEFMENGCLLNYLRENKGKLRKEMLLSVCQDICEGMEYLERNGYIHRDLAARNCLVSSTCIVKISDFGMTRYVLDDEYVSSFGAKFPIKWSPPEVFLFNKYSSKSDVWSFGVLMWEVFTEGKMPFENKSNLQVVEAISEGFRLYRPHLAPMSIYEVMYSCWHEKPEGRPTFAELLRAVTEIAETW

[37] = biological target: Tyrosine-protein kinase Blk (Homo sapiens, UniProt P51451); assay: Inhibition of human BLK
Sequence of Tyrosine-protein kinase Blk (P51451 whole entry): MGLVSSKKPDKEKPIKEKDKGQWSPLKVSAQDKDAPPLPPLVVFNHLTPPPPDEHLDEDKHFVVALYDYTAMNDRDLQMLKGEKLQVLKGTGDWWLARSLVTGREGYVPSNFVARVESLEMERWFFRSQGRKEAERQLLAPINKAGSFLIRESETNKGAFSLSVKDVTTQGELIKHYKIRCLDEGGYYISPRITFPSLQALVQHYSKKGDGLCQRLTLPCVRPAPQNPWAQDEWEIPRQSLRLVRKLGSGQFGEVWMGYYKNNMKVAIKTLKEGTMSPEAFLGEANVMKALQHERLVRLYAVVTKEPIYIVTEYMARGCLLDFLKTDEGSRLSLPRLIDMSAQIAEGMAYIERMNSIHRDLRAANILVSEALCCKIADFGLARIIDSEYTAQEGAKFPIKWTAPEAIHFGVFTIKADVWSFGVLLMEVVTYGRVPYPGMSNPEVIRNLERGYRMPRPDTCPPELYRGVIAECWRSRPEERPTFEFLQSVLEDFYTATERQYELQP

Sequence of Tyrosine-protein kinase Lck (P06239 whole entry): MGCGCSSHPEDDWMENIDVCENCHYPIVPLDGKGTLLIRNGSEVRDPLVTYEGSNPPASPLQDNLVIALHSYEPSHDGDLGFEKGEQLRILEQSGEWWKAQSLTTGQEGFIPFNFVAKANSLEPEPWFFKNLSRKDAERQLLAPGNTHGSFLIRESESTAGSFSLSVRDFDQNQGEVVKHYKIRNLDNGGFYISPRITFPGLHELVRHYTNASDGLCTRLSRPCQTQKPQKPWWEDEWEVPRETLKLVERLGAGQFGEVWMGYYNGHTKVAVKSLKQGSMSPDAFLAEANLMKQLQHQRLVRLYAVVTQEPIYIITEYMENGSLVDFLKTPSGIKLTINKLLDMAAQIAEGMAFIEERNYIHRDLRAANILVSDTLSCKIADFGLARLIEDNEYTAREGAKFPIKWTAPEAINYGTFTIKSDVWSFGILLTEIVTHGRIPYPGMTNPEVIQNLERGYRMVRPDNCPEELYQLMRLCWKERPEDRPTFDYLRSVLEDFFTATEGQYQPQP
Sequence of Receptor tyrosine-protein kinase erbB-4 (Q15303 whole entry): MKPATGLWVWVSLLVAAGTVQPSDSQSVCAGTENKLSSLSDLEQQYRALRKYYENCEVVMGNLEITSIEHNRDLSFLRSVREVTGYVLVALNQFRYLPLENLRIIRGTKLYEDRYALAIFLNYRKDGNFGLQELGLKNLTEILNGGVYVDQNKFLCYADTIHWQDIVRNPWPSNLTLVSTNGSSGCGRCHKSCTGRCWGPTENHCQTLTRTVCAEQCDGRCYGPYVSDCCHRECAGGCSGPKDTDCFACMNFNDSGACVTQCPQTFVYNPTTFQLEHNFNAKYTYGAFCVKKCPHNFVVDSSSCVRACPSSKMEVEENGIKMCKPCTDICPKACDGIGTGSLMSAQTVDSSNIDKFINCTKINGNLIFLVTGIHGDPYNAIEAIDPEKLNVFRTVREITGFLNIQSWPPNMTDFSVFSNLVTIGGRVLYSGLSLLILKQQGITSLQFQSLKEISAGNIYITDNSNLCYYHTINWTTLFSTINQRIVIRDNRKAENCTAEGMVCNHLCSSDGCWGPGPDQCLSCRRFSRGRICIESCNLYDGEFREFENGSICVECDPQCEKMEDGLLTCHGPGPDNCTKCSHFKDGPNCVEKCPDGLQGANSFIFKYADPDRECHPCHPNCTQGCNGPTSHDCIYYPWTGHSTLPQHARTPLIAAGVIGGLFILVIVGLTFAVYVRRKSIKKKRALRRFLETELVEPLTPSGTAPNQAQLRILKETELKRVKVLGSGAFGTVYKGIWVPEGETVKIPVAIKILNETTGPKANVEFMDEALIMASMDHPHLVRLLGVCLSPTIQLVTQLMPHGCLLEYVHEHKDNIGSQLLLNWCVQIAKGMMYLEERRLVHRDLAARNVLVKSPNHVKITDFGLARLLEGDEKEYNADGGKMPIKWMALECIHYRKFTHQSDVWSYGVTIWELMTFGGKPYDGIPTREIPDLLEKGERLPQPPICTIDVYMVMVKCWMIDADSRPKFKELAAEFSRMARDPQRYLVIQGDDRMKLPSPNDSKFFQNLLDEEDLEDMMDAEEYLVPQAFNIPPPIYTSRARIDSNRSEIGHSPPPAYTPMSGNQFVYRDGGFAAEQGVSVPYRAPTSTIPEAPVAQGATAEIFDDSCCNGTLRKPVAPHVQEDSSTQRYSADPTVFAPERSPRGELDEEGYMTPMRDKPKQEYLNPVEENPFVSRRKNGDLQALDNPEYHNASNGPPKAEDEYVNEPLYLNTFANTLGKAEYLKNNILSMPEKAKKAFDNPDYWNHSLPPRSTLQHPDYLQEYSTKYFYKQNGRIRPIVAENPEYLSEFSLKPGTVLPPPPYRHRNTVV
Sequence of Proto-oncogene tyrosine-protein kinase Src (P12931 2-536 limits assumed): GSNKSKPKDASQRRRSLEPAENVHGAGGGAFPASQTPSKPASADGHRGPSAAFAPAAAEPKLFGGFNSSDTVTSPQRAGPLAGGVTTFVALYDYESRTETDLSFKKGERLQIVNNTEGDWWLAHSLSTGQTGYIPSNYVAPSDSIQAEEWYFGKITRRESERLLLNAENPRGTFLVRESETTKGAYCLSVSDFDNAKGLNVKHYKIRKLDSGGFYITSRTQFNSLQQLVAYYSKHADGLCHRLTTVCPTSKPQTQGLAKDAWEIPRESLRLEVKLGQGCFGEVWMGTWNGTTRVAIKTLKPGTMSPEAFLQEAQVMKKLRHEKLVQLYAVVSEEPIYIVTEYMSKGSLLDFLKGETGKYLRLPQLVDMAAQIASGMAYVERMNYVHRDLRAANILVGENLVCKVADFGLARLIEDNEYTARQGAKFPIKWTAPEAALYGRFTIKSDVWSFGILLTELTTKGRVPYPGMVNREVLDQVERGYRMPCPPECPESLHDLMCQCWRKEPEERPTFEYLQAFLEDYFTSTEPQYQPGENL
Sequence of Tyrosine-protein kinase Srms (Q9H3Y6 whole entry): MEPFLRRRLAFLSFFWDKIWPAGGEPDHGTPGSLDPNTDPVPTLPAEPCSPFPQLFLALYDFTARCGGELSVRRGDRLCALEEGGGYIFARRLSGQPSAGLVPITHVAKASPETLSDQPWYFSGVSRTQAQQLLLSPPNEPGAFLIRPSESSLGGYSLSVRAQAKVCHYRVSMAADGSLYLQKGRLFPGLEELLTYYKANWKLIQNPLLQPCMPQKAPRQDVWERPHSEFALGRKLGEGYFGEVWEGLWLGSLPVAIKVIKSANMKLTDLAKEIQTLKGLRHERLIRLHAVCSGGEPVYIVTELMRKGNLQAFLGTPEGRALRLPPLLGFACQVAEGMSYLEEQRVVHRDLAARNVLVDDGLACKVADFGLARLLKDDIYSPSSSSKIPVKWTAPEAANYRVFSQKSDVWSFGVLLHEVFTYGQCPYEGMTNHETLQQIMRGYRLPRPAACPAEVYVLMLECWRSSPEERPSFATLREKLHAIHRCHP
Sequence of Tyrosine-protein kinase Lyn (P07948 whole entry): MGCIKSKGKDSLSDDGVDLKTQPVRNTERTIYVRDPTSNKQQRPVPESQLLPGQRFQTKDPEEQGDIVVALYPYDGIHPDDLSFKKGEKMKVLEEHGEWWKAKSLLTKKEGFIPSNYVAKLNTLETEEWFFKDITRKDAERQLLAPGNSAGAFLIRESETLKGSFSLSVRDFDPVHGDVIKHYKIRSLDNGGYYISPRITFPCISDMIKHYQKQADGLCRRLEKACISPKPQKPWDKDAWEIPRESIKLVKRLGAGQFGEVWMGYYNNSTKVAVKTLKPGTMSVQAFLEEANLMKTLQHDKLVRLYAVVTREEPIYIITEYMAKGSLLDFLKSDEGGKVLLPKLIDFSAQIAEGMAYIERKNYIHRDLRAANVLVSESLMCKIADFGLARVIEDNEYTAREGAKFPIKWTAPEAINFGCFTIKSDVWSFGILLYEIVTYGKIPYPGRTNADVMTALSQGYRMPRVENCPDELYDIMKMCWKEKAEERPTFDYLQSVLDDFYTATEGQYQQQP
Sequence of Tyrosine-protein kinase Fyn (P06241 whole entry): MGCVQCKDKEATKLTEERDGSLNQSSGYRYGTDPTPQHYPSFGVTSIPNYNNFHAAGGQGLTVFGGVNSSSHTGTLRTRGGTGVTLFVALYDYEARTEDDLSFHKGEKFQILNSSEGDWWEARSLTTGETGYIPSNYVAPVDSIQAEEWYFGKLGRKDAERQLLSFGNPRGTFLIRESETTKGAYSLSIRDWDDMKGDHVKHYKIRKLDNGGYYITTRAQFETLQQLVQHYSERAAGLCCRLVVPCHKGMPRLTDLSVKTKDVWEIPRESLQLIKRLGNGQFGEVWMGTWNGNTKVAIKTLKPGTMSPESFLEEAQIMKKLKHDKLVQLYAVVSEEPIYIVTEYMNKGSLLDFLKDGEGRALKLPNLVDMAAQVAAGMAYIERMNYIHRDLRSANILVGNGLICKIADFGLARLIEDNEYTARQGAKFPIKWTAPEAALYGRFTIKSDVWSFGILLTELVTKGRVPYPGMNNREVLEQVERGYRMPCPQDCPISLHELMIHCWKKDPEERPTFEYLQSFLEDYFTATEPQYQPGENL
Sequence of Tyrosine-protein kinase Fgr (P09769 whole entry): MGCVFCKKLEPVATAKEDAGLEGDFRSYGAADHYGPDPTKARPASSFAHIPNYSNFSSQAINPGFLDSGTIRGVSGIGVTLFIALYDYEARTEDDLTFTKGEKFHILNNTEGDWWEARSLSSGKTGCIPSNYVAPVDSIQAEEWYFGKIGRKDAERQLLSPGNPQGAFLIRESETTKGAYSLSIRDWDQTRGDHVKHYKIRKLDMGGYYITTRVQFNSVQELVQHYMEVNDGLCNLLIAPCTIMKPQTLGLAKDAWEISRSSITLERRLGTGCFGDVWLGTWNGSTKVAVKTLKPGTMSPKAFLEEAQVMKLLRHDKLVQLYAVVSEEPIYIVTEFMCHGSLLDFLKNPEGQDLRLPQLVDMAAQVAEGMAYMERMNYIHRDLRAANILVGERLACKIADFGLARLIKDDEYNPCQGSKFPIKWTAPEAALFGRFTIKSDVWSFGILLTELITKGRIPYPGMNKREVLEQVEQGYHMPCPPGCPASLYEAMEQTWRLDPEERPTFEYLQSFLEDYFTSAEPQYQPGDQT

| AUC/dose [8] | Cmax [9] | AUC/dose [10] | clearance [11] | clearance [12] | Vd [13] | half-life [14] | Cmax [15] | Tmax [16] | Vd [17] | Tmax [18] | bioavailability [19] | half-life [20] | bioavailability [21] | SMILES | other results |
| --- | --- | --- | --- | --- | --- | --- | --- | --- | --- | --- | --- | --- | --- | --- | --- |
|  |  |  |  |  |  |  |  |  |  |  |  |  |  | CC1(C(=O)N2CCC[C@@H](c3nc(-c4ccc(C(=O)Nc5cc(C(F)(F)F)ccn5)cc4)c4c(N)nccn34)C2)COC1 | Tmax [1]: 2.2 h; Cmax [2]: 4800 nM; bioavailability [3]: 84%; AUC/dose [4]: 5.1 µM·h; half-life [5]: 1.2 h; clearance [6]: 6.3 mL/min/kg; Vd [7]: 0.59 L/kg |
| 1.6 µM·h | 400 nM | 20 µM·h | 18 mL/min/kg | 1.5 mL/min/kg | 0.65 L/kg | 6.5 h | 3900 nM | 2 h | 2.6 L/kg | 1 h | 82% | 1.8 h | 22% | C[C@H]1CC[C@@H](c2nc(-c3ccc(C(=O)Nc4cc(C(F)(F)F)ccn4)cc3F)c3c(N)nccn23)CN1C(=O)C1CC1 |  |
| 1.1 µM·h | 1000 nM | 3 µM·h | 24 mL/min/kg | 11 mL/min/kg | 2 L/kg | 4.1 h | 780 nM | 1 h | 1.7 L/kg | 0.5 h | 60% | 1.4 h | 77% | CC1(C(=O)N2CCC[C@@H](c3nc(-c4ccc(C(=O)Nc5cc(C(F)(F)F)ccn5)cc4F)c4c(N)nccn34)C2)COC1 | IC50 [22]: 69 nM; IC50 [23]: 22 nM; IC50 [24]: 24 nM; IC50 [25]: 55 nM; IC50 [26]: 116 nM; IC50 [27]: 20 nM; IC50 [28]: 63 nM; IC50 [29]: 184 nM; IC50 [30]: 187 nM; IC50 [31]: 253 nM; IC50 [32]: 43 nM; IC50 [33]: 322 nM; IC50 [34]: 921 nM; IC50 [35]: 81 nM; IC50 [36]: 32 nM; IC50 [37]: 42 nM |
